Values belong to the compound of their own block, whether it stands above or below them.
Experiments:
[1] = biological target: TCF4/beta-catenin (Homo sapiens, UniProt P35222+Q9NQB0); assay: Inhibition of beta-catenin/T cell factor (unknown origin); assay type: protein-complex assay
[2] = biological target: Von Hippel-Lindau disease tumor suppressor/Elongin B/Elongin C (Homo sapiens, UniProt P40337); assay: Displacement of FAM-DEALAHyp-YIPD from VHL/elongins-B/elonginC (unknown origin) by fluorescence polarization assay; assay type: protein-complex assay
Sequence of Von Hippel-Lindau disease tumor suppressor/Elongin B/Elongin C (P40337 whole entry, looked up): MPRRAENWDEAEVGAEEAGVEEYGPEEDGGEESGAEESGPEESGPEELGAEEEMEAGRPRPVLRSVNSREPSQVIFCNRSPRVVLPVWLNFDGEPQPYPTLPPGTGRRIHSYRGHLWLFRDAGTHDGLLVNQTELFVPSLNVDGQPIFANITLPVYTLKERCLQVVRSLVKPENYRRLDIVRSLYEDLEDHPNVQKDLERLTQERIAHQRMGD

[3] = biological target: T1, Interferon alpha/beta receptor 1 (Homo sapiens, UniProt P17181); assay: Binding affinity to IFNAR (unknown origin) assessed as inhibition of interaction with IFN-alpha
T1 sequence (P17181 whole entry): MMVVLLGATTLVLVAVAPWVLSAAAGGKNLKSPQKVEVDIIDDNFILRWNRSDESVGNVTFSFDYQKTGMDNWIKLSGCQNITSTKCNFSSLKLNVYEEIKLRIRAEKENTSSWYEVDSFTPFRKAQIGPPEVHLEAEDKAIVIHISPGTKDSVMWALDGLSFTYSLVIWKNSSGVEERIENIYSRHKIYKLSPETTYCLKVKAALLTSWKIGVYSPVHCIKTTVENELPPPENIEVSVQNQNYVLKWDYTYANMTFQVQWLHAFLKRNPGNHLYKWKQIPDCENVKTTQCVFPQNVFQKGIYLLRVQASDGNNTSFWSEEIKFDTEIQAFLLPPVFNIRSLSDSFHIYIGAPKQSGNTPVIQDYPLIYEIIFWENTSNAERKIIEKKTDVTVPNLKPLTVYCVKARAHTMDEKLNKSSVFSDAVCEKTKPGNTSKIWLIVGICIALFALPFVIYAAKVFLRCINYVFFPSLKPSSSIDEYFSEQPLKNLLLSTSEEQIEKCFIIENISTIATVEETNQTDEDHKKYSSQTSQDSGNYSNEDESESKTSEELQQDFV

Sequence of TCF4/beta-catenin (P35222 whole entry): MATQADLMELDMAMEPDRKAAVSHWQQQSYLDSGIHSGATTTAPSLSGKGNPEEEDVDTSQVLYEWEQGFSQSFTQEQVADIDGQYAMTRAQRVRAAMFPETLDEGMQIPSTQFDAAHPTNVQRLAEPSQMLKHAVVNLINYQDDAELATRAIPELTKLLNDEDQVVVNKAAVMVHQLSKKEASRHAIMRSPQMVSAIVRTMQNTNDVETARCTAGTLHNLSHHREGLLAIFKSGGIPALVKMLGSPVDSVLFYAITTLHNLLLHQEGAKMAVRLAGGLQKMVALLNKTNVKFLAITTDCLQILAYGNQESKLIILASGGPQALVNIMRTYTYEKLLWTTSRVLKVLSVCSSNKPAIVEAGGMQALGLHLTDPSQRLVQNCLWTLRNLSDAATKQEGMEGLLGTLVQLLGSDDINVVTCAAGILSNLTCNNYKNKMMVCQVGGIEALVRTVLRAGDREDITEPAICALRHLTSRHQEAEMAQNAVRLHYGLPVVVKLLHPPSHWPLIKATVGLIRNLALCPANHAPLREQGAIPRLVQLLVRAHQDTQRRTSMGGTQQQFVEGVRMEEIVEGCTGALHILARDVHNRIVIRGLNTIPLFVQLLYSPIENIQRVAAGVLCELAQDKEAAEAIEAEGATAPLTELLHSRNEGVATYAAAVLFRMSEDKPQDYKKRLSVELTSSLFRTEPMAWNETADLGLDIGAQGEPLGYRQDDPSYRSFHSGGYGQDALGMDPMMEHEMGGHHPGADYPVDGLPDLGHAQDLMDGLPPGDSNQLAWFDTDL
Sequence of TCF4/beta-catenin (Q9NQB0 whole entry): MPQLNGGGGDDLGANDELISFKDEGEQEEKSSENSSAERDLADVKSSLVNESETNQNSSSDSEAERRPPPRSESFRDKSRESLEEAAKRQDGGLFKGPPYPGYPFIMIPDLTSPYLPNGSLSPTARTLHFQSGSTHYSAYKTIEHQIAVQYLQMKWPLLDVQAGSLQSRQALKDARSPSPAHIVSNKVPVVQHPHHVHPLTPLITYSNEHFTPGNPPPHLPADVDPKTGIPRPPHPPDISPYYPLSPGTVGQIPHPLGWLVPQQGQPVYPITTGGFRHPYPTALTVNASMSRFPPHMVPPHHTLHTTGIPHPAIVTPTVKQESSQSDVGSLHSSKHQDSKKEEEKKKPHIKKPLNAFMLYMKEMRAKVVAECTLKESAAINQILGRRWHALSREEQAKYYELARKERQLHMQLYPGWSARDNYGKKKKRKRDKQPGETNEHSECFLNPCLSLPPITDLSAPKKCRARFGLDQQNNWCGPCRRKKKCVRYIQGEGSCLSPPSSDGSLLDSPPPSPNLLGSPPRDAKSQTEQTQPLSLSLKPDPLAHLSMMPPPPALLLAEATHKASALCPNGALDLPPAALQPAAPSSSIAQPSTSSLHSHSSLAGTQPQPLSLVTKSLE

Ki [1]: 1350 nM
SMILES: Oc1noc2cc(CCc3nn[nH]n3)ccc12

IC50 [2]: 900 nM
SMILES: Cc1ncsc1-c1ccc(CNC(=O)[C@@H]2C[C@@H](O)CN2C(=O)c2cccc(N)c2C)cc1

Kd [3]: 4000 nM
SMILES: CNCc1ccccc1Sc1cccc2ccccc12

Source: ChEMBL document CHEMBL3259607, “Hot spot-based design of small-molecule inhibitors for protein-protein interactions” (Bioorg Med Chem Lett, 2014)
